Laboratory results: ChEMBL document CHEMBL1201861, “Genomics of Drug Sensitity in Cancer screening data, Wellcome Trust Sanger Institute”

Experiments:
NCI-H2342 = assay: cells; assay type: functional, cell-based, Homo sapiens; conditions: Homo sapiens, NCI-H2342
Description: SANGER: Inhibition of human NCI-H2342 cell growth in a cell viability assay.

NCI-H28 = assay: cells; assay type: functional, cell-based, Homo sapiens; conditions: Homo sapiens, NCI-H28
Description: SANGER: Inhibition of human NCI-H28 cell growth in a cell viability assay.

THP-1 = assay: cells; assay type: functional, cell-based, Homo sapiens; conditions: Homo sapiens, THP-1
Description: SANGER: Inhibition of human THP-1 cell growth in a cell viability assay.

TALL-1 = assay: cells; assay type: functional, cell-based, Homo sapiens; conditions: Homo sapiens, TALL-1
Description: SANGER: Inhibition of human TALL-1 cell growth in a cell viability assay.

SNU-387 = assay: cells; assay type: functional, cell-based, Homo sapiens; conditions: Homo sapiens, SNU-387
Description: SANGER: Inhibition of human SNU-387 cell growth in a cell viability assay.

SW756 = assay: cells; assay type: functional, cell-based, Homo sapiens; conditions: Homo sapiens, SW756
Description: SANGER: Inhibition of human SW756 cell growth in a cell viability assay.

UACC-893 = assay: cells; assay type: functional, cell-based, Homo sapiens; conditions: Homo sapiens, UACC-893
Description: SANGER: Inhibition of human UACC-893 cell growth in a cell viability assay.

NCI-H661 = assay: cells; assay type: functional, cell-based, Homo sapiens; conditions: Homo sapiens, NCI-H661
Description: SANGER: Inhibition of human NCI-H661 cell growth in a cell viability assay.

COR-L105 = assay: cells; assay type: functional, cell-based, Homo sapiens; conditions: Homo sapiens, COR-L105
Description: SANGER: Inhibition of human COR-L105 cell growth in a cell viability assay.

U2OS = assay: cells; assay type: functional, cell-based, Homo sapiens, U-2-OS; conditions: Homo sapiens, U2OS
Description: SANGER: Inhibition of human U-2-OS cell growth in a cell viability assay.

COR-L279 = assay: SANGER: Inhibition of human COR-L279 cell growth in a cell viability assay.; assay type: functional, cell-based; conditions: Homo sapiens, COR-L279
MRK-nu-1 = assay: cells; assay type: functional, cell-based, Homo sapiens; conditions: Homo sapiens, MRK-nu-1
Description: SANGER: Inhibition of human MRK-nu-1 cell growth in a cell viability assay.

CAL-62 = assay: cells; assay type: functional, cell-based, Homo sapiens; conditions: Homo sapiens, CAL-62
Description: SANGER: Inhibition of human CAL-62 cell growth in a cell viability assay.

SR = assay: cells; assay type: functional, cell-based, Homo sapiens; conditions: Homo sapiens, SR
Description: SANGER: Inhibition of human SR cell growth in a cell viability assay.

CWR22R = assay: cells; assay type: functional, cell-based, Homo sapiens; conditions: Homo sapiens, 22Rv1
Description: SANGER: Inhibition of human 22RV1 cell growth in a cell viability assay.

NCI-H345 = assay: cells; assay type: functional, cell-based, Homo sapiens; conditions: Homo sapiens, NCI-H345
Description: SANGER: Inhibition of human NCI-H345 cell growth in a cell viability assay.

8505C = assay: cells; assay type: functional, cell-based, Homo sapiens; conditions: Homo sapiens, 8505C
Description: SANGER: Inhibition of human 8505C cell growth in a cell viability assay.

LCLC-103H cell line = assay: cells; assay type: functional, cell-based, Homo sapiens; conditions: Homo sapiens, LCLC-103H
Description: SANGER: Inhibition of human LCLC-103H cell growth in a cell viability assay.

SJRH30 = assay: cells; assay type: functional, cell-based, Homo sapiens; conditions: Homo sapiens, SJRH30
Description: SANGER: Inhibition of human SJRH30 cell growth in a cell viability assay.

EB-3 = assay: cells; assay type: functional, cell-based, Homo sapiens; conditions: Homo sapiens, EB-3
Description: SANGER: Inhibition of human EB-3 cell growth in a cell viability assay.

HT-29 = assay: cells; assay type: functional, cell-based, Homo sapiens; conditions: Homo sapiens, HT-29
Description: SANGER: Inhibition of human HT-29 cell growth in a cell viability assay.

NCI-H358 = assay: cells; assay type: functional, cell-based, Homo sapiens; conditions: Homo sapiens, NCI-H358
Description: SANGER: Inhibition of human NCI-H358 cell growth in a cell viability assay.

SCLC-21H = assay: cells; assay type: functional, cell-based, Homo sapiens; conditions: Homo sapiens, SCLC-21H
Description: SANGER: Inhibition of human SCLC-21H cell growth in a cell viability assay.

SW1088 = assay: cells; assay type: functional, cell-based, Homo sapiens; conditions: Homo sapiens, SW1088
Description: SANGER: Inhibition of human SW1088 cell growth in a cell viability assay.

K052 = assay: cells; assay type: functional, cell-based, Homo sapiens; conditions: Homo sapiens, K052
Description: SANGER: Inhibition of human K052 cell growth in a cell viability assay.

CAL-51 = assay: cells; assay type: functional, cell-based, Homo sapiens; conditions: Homo sapiens, CAL-51
Description: SANGER: Inhibition of human CAL-51 cell growth in a cell viability assay.

Ca9-22 = assay: cells; assay type: functional, cell-based, Homo sapiens; conditions: Homo sapiens, Ca9-22
Description: SANGER: Inhibition of human Ca9-22 cell growth in a cell viability assay.

NCI-H1651 = assay: cells; assay type: functional, cell-based, Homo sapiens; conditions: Homo sapiens, NCI-H1651
Description: SANGER: Inhibition of human NCI-H1651 cell growth in a cell viability assay.

GP5d = assay: cells; assay type: functional, cell-based, Homo sapiens; conditions: Homo sapiens, GP5d
Description: SANGER: Inhibition of human GP5d cell growth in a cell viability assay.

SK-MEL-30 = assay: cells; assay type: functional, cell-based, Homo sapiens; conditions: Homo sapiens, SK-MEL-30
Description: SANGER: Inhibition of human SK-MEL-30 cell growth in a cell viability assay.

NCI-H1793 = assay: cells; assay type: functional, cell-based, Homo sapiens; conditions: Homo sapiens, NCI-H1793
Description: SANGER: Inhibition of human NCI-H1793 cell growth in a cell viability assay.

639-V = assay: cells; assay type: functional, cell-based, Homo sapiens; conditions: Homo sapiens, 639-V
Description: SANGER: Inhibition of human 639-V cell growth in a cell viability assay.

NCI-H2081 = assay: cells; assay type: functional, cell-based, Homo sapiens; conditions: Homo sapiens, NCI-H2081
Description: SANGER: Inhibition of human NCI-H2081 cell growth in a cell viability assay.

IMR-5 = assay: cells; assay type: functional, cell-based, Homo sapiens; conditions: Homo sapiens, IMR-5
Description: SANGER: Inhibition of human IMR-5 cell growth in a cell viability assay.

PC-3 = assay: cells; assay type: functional, cell-based, Homo sapiens; conditions: Homo sapiens, PC-3
Description: SANGER: Inhibition of human PC-3 cell growth in a cell viability assay.

NCI-H2227 = assay: cells; assay type: functional, cell-based, Homo sapiens; conditions: Homo sapiens, NCI-H2227
Description: SANGER: Inhibition of human NCI-H2227 cell growth in a cell viability assay.

HT-3 = assay: cells; assay type: functional, cell-based, Homo sapiens; conditions: Homo sapiens, HT-3
Description: SANGER: Inhibition of human HT-3 cell growth in a cell viability assay.

M14 = assay: cells; assay type: functional, cell-based, Homo sapiens; conditions: Homo sapiens, M14
Description: SANGER: Inhibition of human M14 cell growth in a cell viability assay.

SW1417 = assay: cells; assay type: functional, cell-based, Homo sapiens; conditions: Homo sapiens, SW1417
Description: SANGER: Inhibition of human SW1417 cell growth in a cell viability assay.

A204 = assay: cells; assay type: functional, cell-based, Homo sapiens; conditions: Homo sapiens, A204
Description: SANGER: Inhibition of human A204 cell growth in a cell viability assay.

BHY = assay: cells; assay type: functional, cell-based, Homo sapiens; conditions: Homo sapiens, BHY
Description: SANGER: Inhibition of human BHY cell growth in a cell viability assay.

LC-1F = assay: cells; assay type: functional, cell-based, Homo sapiens; conditions: Homo sapiens, LC-1F
Description: SANGER: Inhibition of human LC-1F cell growth in a cell viability assay.

CAL-33 = assay: cells; assay type: functional, cell-based, Homo sapiens; conditions: Homo sapiens, CAL-33
Description: SANGER: Inhibition of human CAL-33 cell growth in a cell viability assay.

KMS-12-PE = assay: cells; assay type: functional, cell-based, Homo sapiens; conditions: Homo sapiens, KMS-12-PE
Description: SANGER: Inhibition of human KMS-12-PE cell growth in a cell viability assay.

SW13 = assay: cells; assay type: functional, cell-based, Homo sapiens; conditions: Homo sapiens, SW13
Description: SANGER: Inhibition of human SW13 cell growth in a cell viability assay.

## CCC/C=C/C=C/C(=O)O[C@H]1/C(=C/C(=O)OC)C[C@H]2C[C@H]([C@@H](C)O)OC(=O)C[C@H](O)C[C@@H]3C[C@H](OC(C)=O)C(C)(C)[C@](O)(C[C@@H]4C/C(=C/C(=O)OC)C[C@H](/C=C/C(C)(C)[C@]1(O)O2)O4)O3 [BRYOSTATIN 1]
NCI-H2342
  IC50: > 8 nM
NCI-H28
  IC50: > 8 nM
THP-1
  IC50: > 8 nM
TALL-1
  IC50: > 8 nM
SNU-387
  IC50: > 8 nM
SW756
  IC50: > 8 nM
UACC-893
  IC50: > 8 nM
NCI-H661
  IC50: > 8 nM
COR-L105
  IC50: > 8 nM
U2OS
  IC50: > 8 nM
COR-L279
  IC50: > 8 nM
MRK-nu-1
  IC50: > 8 nM
CAL-62
  IC50: > 8 nM
SR
  IC50: > 8 nM
CWR22R
  IC50: > 8 nM
NCI-H345
  IC50: > 8 nM
8505C
  IC50: > 8 nM
LCLC-103H cell line
  IC50: > 8 nM
SJRH30
  IC50: > 8 nM
EB-3
  IC50: > 8 nM
HT-29
  IC50: > 8 nM
NCI-H358
  IC50: > 8 nM
SCLC-21H
  IC50: > 8 nM
SW1088
  IC50: > 8 nM
K052
  IC50: > 8 nM
CAL-51
  IC50: > 8 nM
Ca9-22
  IC50: > 8 nM
NCI-H1651
  IC50: > 8 nM
GP5d
  IC50: > 8 nM
SK-MEL-30
  IC50: > 8 nM
NCI-H1793
  IC50: > 8 nM
639-V
  IC50: > 8 nM
NCI-H2081
  IC50: > 8 nM
IMR-5
  IC50: > 8 nM
PC-3
  IC50: > 8 nM
NCI-H2227
  IC50: > 8 nM
HT-3
  IC50: > 8 nM
M14
  IC50: > 8 nM
SW1417
  IC50: > 8 nM
A204
  IC50: > 8 nM
BHY
  IC50: > 8 nM
LC-1F
  IC50: > 8 nM
CAL-33
  IC50: > 8 nM
KMS-12-PE
  IC50: > 8 nM
SW13
  IC50: > 8 nM

## COc1cccc2c1C(=O)c1c(O)c3c(c(O)c1C2=O)C[C@@](O)(C(=O)CO)C[C@@H]3O[C@H]1C[C@H](N)[C@H](O)[C@H](C)O1 [DOXORUBICIN]
NCI-H2342
  IC50: 22.9 nM
NCI-H28
  IC50: > 1020 nM
THP-1
  IC50: 989 nM
TALL-1
  IC50: > 1020 nM
SNU-387
  IC50: 236 nM
SW756
  IC50: 275 nM
UACC-893
  IC50: 522 nM
NCI-H661
  IC50: 49 nM
COR-L105
  IC50: 189 nM
U2OS
  IC50: > 1020 nM
COR-L279
  IC50: 56.9 nM
MRK-nu-1
  IC50: 43.7 nM
CAL-62
  IC50: 32.8 nM
SR
  IC50: 24.4 nM
CWR22R
  IC50: 21.2 nM
NCI-H345
  IC50: > 1020 nM
8505C
  IC50: 19.6 nM
LCLC-103H cell line
  IC50: 20.5 nM
SJRH30
  IC50: 173 nM
EB-3
  IC50: 771 nM
HT-29
  IC50: 36.6 nM
NCI-H358
  IC50: 41.1 nM
SCLC-21H
  IC50: > 1020 nM
SW1088
  IC50: > 1020 nM
K052
  IC50: > 1020 nM
CAL-51
  IC50: 17.3 nM
Ca9-22
  IC50: 50.1 nM
NCI-H1651
  IC50: 11.8 nM
GP5d
  IC50: 49.1 nM
SK-MEL-30
  IC50: 35.6 nM
NCI-H1793
  IC50: 901 nM
639-V
  IC50: 15.9 nM
NCI-H2081
  IC50: 234 nM
IMR-5
  IC50: 34.7 nM
PC-3
  IC50: 957 nM
NCI-H2227
  IC50: > 1020 nM
HT-3
  IC50: 133 nM
M14
  IC50: 905 nM
SW1417
  IC50: 363 nM
A204
  IC50: 12.9 nM
BHY
  IC50: 28.9 nM
LC-1F
  IC50: > 1020 nM
CAL-33
  IC50: 67.9 nM
KMS-12-PE
  IC50: 418 nM
SW13
  IC50: 115 nM

## Nc1ccn([C@@H]2O[C@H](CO)[C@@H](O)C2(F)F)c(=O)n1 [GEMCITABINE]
NCI-H2342
  IC50: 7.63 nM
NCI-H28
  IC50: > 1020 nM
THP-1
  IC50: 664 nM
TALL-1
  IC50: > 1020 nM
SNU-387
  IC50: 827 nM
SW756
  IC50: 45.1 nM
UACC-893
  IC50: > 1020 nM
NCI-H661
  IC50: 104 nM
COR-L105
  IC50: 29.4 nM
U2OS
  IC50: > 1020 nM
COR-L279
  IC50: 53.9 nM
MRK-nu-1
  IC50: 2.57 nM
CAL-62
  IC50: 1.22 nM
SR
  IC50: 2.12 nM
CWR22R
  IC50: 96.5 nM
NCI-H345
  IC50: > 1020 nM
8505C
  IC50: 1.06 nM
LCLC-103H cell line
  IC50: 33.3 nM
SJRH30
  IC50: 106 nM
EB-3
  IC50: > 1020 nM
HT-29
  IC50: < 4 nM
NCI-H358
  IC50: 7.16 nM
SCLC-21H
  IC50: > 1020 nM
SW1088
  IC50: > 1020 nM
K052
  IC50: 137 nM
CAL-51
  IC50: 191 nM
Ca9-22
  IC50: 1.54 nM
NCI-H1651
  IC50: 21.1 nM
GP5d
  IC50: 28.7 nM
SK-MEL-30
  IC50: < 4 nM
NCI-H1793
  IC50: 224 nM
639-V
  IC50: 193 nM
NCI-H2081
  IC50: 311 nM
IMR-5
  IC50: 83 nM
PC-3
  IC50: > 1020 nM
NCI-H2227
  IC50: > 1020 nM
HT-3
  IC50: 201 nM
M14
  IC50: 515 nM
SW1417
  IC50: > 1020 nM
A204
  IC50: 11.2 nM
BHY
  IC50: 1.14 nM
LC-1F
  IC50: > 1020 nM
CAL-33
  IC50: 1.89 nM
KMS-12-PE
  IC50: > 1020 nM
SW13
  IC50: 330 nM
